From publication PMC9538944, “In vitro biotransformation assays using fish liver cells: Comparing rainbow trout and carp hepatocytes” (Frontiers in Toxicology, 2022)
Several values for one entry are separate records, joined by “and”; a condition that tells them apart may be missing. Equal values may be shown once. Read-outs that look alike come from different tables or passages of the source.

How the values were obtained:
rainbow trout = assay: In vivo bioconcentration test OECD TG 305, trout; design: species or system Oncorhynchus mykiss
Method: (§1) In vivo BCF values for MXC and BaP in carp and trout were determined in bioconcentration tests with both species in accordance to OECD TG 305 ([OECD, 2012]). The studies were approved by the State Agency for Nature, Environment and Consumer Protection (LANUV) North Rhine-Westphalia. The fish were exposed to a single concentration of both test items in a flow-through system for 35 days. No control groups were used. Dosing was performed by a solid-phase desorption system which was integrated in the fresh water supply allowing for a constant delivery of test concentrations to the fish chambers. The procedure of column generated concentrations was described in detail by [Schlechtriem et al. (2017)]. For the present study, two packed columns containing each 500 g Florisil® loaded with 200 mg of either MXC or BaP were used for each fish chamber. The uptake (exposure) phase of the study was followed by a 35 days depuration phase in uncontaminated water. The flow-through rate was maintained at 38.6 L/h for carp and 30.1 L/h for trout throughout the test. […] Additional 2-4 fish were sampled each, at the start and at the end of the exposure period, as well as at the end of the depuration period for lipid analysis. The total lipid content of the fish was measured individually by gravimetric analysis according to [Smedes (1999)].
(§2) Water samples (400 ml) were taken from the test chambers at least three times per week. Preparation for chemical analysis was performed by liquid-liquid extraction using n-hexane (10 ml) containing deuterated MXC (35 ng). The purified organic phase was subdivided into two equal parts and evaporated to dryness under a stream of nitrogen. One part of the residue was dissolved in 200 µL DCM for MXC analysis. The other part was mixed with 1 ml ACN: water (8:2, v/v) and subjected to BaP analysis. Whole fish samples were prepared for chemical analysis individually. After grinding the tissue with the addition of dry ice in a Thermomix™ 31 (Vorwerk), the finely powdered homogenate was lyophilized using an AdVantage freeze dryer (Ismatec). Aliquots of the dry samples (0.5 g) were spiked with deuterated internal standards (5 ng MXC-d6 and 0.2 ng BaP-d12) and extracted three times with acetone: DCM (1:1, v/v) (10 ml). The pooled extracts were then extracted with ultra-pure water (45 ml) and mixed with sodium chloride (5 g) to remove acetone and matrix. The organic phase was concentrated (0.5 ml) and dissolved in cyclohexane: DCM (1:1, v/v) (4.2 ml). This was subjected to gel permeation chromatography (GPC) (GILSON system equipped with pump 307, syringe pump 402, GX-271 liquid handler, 508 interface module, and Trilution® LC software; column i. d. 1.5 cm, material Bio-Beads S-X3, 200–400 mesh, Bio-Rad, flow rate 2 ml/min). Eluates containing MXC (26–31 min retention time) and BaP (32–38 min retention time) were evaporated to dryness and dissolved in hexane (1 ml) and toluol (50 µL), respectively. The collected MXC extracts were further concentrated by solid-phase extraction (SPE, Sep-Pak® Vac 12cc, 2 g, silica cartridges, Waters) using DCM: n-hexane (50:50, v/v) as eluent. Eluent and hexane were used to equilibrate and condition the column before sample loading and subsequent washing with DCM: n-hexane (30:70, v/v). The eluate containing MXC was dried down and reconstituted in toluol (0.5 ml).
(§3) MXC in the organic phase of samples from the in vitro incubations and in DCM extracts of water samples from the in vivo bioconcentration tests were analyzed by gas chromatography-mass spectrometry (GC-MS). The GC-MS system consisted of a HP5890 series II GC coupled to a HP5972 mass sensitive detector (Hewlett-Packard). Separations were performed on 5% phenyl polysilphenylene-siloxane capillary columns (BPX-5, 30 m length x 0.25 mm i. d, 0.25 µm df, SGE). […]

[1] = In vivo bioconcentration test OECD TG 305, trout; design: species or system Oncorhynchus mykiss; details: rainbow trout (Oncorhynchus mykiss); for concentration at 7 d: day 7 (uptake); for concentration at 40 d: day 40 (depuration)
Method: as §1, §2, §3

[2] = rainbow trout (Oncorhynchus mykiss), in vivo
[3] = in vivo, Cf data, concentration measured in individual fish
[4] = in vivo, rainbow trout, read-out: Mean Cf
[5] = in vivo, rainbow trout, day 14 (uptake), read-out: Mean Cf
[6] = in vivo, rainbow trout, day 21 (uptake), read-out: Mean Cf
[7] = in vivo, rainbow trout, day 28 (uptake), read-out: Mean Cf
[8] = in vivo, rainbow trout, day 35 (end of uptake), read-out: Mean Cf
[9] = in vivo, rainbow trout, day 44 (depuration), read-out: Mean Cf
[10] = in vivo, rainbow trout, BaP background corrected, read-out: Cf data, concentration measured in individual fish

With c1ccc2c(c1)cc1ccc3cccc4ccc2c1c34 [BaP, benzo[a]pyrene] the “Cf,SS concentration in fish at steady-state” value (shortened to “Cf,SS concentration in fish”) (rainbow trout; [2]) was 0.126 µg/kg, the “kB, in vivo estimate Trout” value (rainbow trout; [2]) was 0.40 day⁻¹ and the “kB, in vivo estimate, range of 95% probability” value (rainbow trout; [2]) was 0.13 to 1.2 day⁻¹. The “kT depuration rate constant” value (rainbow trout; [2]) was 0.427 day⁻¹, the “kTG growth corrected depuration rate constant” value (rainbow trout; [2]) was 0.401 day⁻¹ and the “BCFSSL lipid-normalized steady-state bioconcentration factor” value (rainbow trout; rainbow trout (Oncorhynchus mykiss), in vivo, 35 d) was 42.8 L/kg. The “Cf data, concentration measured in individual fish” value (“Cf data, concentration measured” for short) (rainbow trout; rainbow trout (Oncorhynchus mykiss), in vivo, 44 d) was 0.002 µg/kg, the concentration at 14 d [1, 3] was 0.079 ng/g and the concentration at 21 d [1, 3] was 0.111 ng/g. For the same compound, the concentration at 28 d [1, 3] was 0.126 ng/g, the concentration at 35 d [1, 3] was 0.084 ng/g and the concentration at 44 d [1, 3] was 0.004 ng/g. It also gave a concentration at 7 d [1, 4] of 0.107 ng/g, a concentration at 14 d [1, 5] of 0.07 ng/g and a concentration at 21 d [1, 6] of 0.141 ng/g. For the same compound, the concentration at 28 d [1, 7] was 0.121 ng/g, the concentration at 35 d [1, 8] was 0.116 ng/g and the concentration at 40 d [1, 4] was 0.011 ng/g. For the same compound, the concentration at 44 d [1, 9] was 0.003 ng/g and the concentration at 21 d ([1]; whole fish, other: exposure via water in a flow-through system, rainbow trout, day 21 (uptake), BaP background corrected, read-out: Cf data, concentration measured in individual fish) was 0.107 ng/g.

For COc1ccc(C(c2ccc(OC)cc2)C(Cl)(Cl)Cl)cc1 [MXC, methoxychlor], the BCFSS (rainbow trout; Rainbow trout - high BCFSS) was 3854 L/kg, the “Cf,SS concentration in fish” value (rainbow trout; Rainbow trout - high BCFSS) was 44.1 µg/kg and the “kTG growth corrected depuration rate constant” value (rainbow trout; Rainbow trout - high BCFSS) was 0.201 day⁻¹. For the same compound, the “kT depuration rate constant” value (rainbow trout; Rainbow trout - high BCFSS (kT-high, day 56-70 values excluded)) was 0.227 day⁻¹, the “BCFSSL lipid-normalized steady-state bioconcentration factor” value (rainbow trout; Rainbow trout - high BCFSS, 5% lipid content) was 2122 L/kg and the “Cf,SS concentration in fish” value (rainbow trout; rainbow trout) was 30.76 µg/kg. For the same compound, the “kT depuration rate constant” value (rainbow trout; rainbow trout) was 0.150 day⁻¹, the “kTG growth corrected depuration rate constant” value (rainbow trout; rainbow trout) was 0.124 day⁻¹ and the “BCFSSL lipid-normalized steady-state bioconcentration factor” value (rainbow trout; rainbow trout, 5% lipid content) was 1479 L/kg. The “Cf data, concentration measured” value (rainbow trout; rainbow trout, day 7 (uptake), BaP background corrected) was 30.0 µg/kg and 18.7 µg/kg and 17.4 µg/kg, the “Cf data, concentration measured” value (rainbow trout; rainbow trout, day 14 (uptake), BaP background corrected) was 18.1 µg/kg and 25.4 µg/kg and 13.7 µg/kg and the “Cf data, concentration measured” value (rainbow trout; rainbow trout, day 21 (uptake), BaP background corrected) was 23.9 µg/kg and 14.5 µg/kg and 19.4 µg/kg. The “Cf data, concentration measured” value (rainbow trout; rainbow trout, day 28 (uptake), BaP background corrected) was 50.1 µg/kg and 34.5 µg/kg and 29.6 µg/kg, the “Cf data, concentration measured” value (rainbow trout; rainbow trout, day 35 (end of uptake), BaP background corrected) was 50.9 µg/kg and 49.5 µg/kg and 23.5 µg/kg and 61.7 µg/kg and the “Cf data, concentration measured” value (rainbow trout; rainbow trout, day 40 (depuration), BaP background corrected) was 15.9 µg/kg and 15.8 µg/kg. The “Cf data, concentration measured” value (rainbow trout; rainbow trout, day 44 (depuration), BaP background corrected) was 2.19 µg/kg and 7.53 µg/kg and 8.23 µg/kg and 6.28 µg/kg, the “Cf data, concentration measured” value (rainbow trout; rainbow trout, day 56 (depuration), 5.42 identified as outlier and excluded) was 5.42 µg/kg and 2.06 µg/kg and 2.23 µg/kg and 0.969 µg/kg and the “Cf data, concentration measured” value (rainbow trout; rainbow trout, day 70 (end of depuration)) was 2.46 µg/kg and 0.320 µg/kg and 0.237 µg/kg. For the same compound, the concentration at 7 d [1, 10] was 25.9 ng/g, the concentration at 7 d [1, 4] was 23 ng/g and the concentration at 14 d ([1]; in vivo, rainbow trout, day 14 (uptake), BaP background corrected, read-out: Cf data, concentration measured in individual fish) was 27.1 ng/g. It also gave a concentration at 14 d [1, 5] of 21.1 ng/g, a concentration at 21 d ([1]; in vivo, rainbow trout, day 21 (uptake), BaP background corrected, read-out: Cf data, concentration measured in individual fish) of 28 ng/g and a concentration at 21 d [1, 6] of 21.5 ng/g. It also gave a concentration at 28 d ([1]; in vivo, rainbow trout, day 28 (uptake), BaP background corrected, read-out: Cf data, concentration measured in individual fish) of 53.2 ng/g, a concentration at 28 d [1, 7] of 41.9 ng/g and a concentration at 35 d [1, 8] of 46.4 ng/g. For the same compound, the concentration at 40 d [1, 10] was 9.62 ng/g, the concentration at 40 d [1, 4] was 13.8 ng/g and the concentration at 44 d [1, 9] was 6.06 ng/g. For the same compound, the concentration at 56 d ([1]; in vivo, rainbow trout, day 56 (depuration), outlier excluded, read-out: Mean Cf) was 1.75 ng/g and the concentration at 70 d ([1]; in vivo, rainbow trout, day 70 (end of depuration), read-out: Mean Cf) was 1.01 ng/g.
